Source: EP1029544A1, “INTRA-CANCER-CELL NUCLEASE ACTIVATOR” (Nippon Shinyaku Co., Ltd., priority 1997, dated 1999)
Converted amounts (≈) assume the structure as drawn.

What was measured:
Assay in all cases: Growth inhibitory effect (in vitro), MTT method
Assay type in all cases: cell-based
SK-HEP-1 = conditions: Homo sapiens, SK-HEP1, 72 h; SK-HEP-1, Liver adenocarcinoma; 3 days
Experimental: (§1) A 96-well plate was seeded with cells at a density of 10^4 cells/well. On the following day, the activator of Example 4 or adriamycin was added and the cultivation was continued. After 3 days the viable cell count was determined by the MTT method.

SW480 = conditions: Homo sapiens, 72 h; SW480, Colon adenocarcinoma; 3 days
Experimental: as §1

AsPC-1 = conditions: Homo sapiens, ASPC1, 72 h; AsPC-1, Pancreatic adenocarcinoma; 3 days
Experimental: as §1

RD = conditions: Homo sapiens, 72 h, Rhabdomyosarcoma, 3 days
Experimental: as §1

LoVo = conditions: Homo sapiens, 72 h, Colon adenocarcinoma, 3 days
Experimental: as §1

TSU-PR-1 = conditions: Homo sapiens, TSU-Pr1, 72 h; TSU-PR-1, Prostate cancer; 3 days
Experimental: as §1

HCC-T = conditions: 72 h, Liver cancer, 3 days
Experimental: as §1

McA-8994 = conditions: 72 h; McA-8994, Rat hepatoma; 3 days
Experimental: as §1

SK-OV-3 = conditions: Homo sapiens, 72 h; SK-OV-3, Ovary adenocarcinoma; 3 days
Experimental: as §1

WRL68 = conditions: 72 h; WRL68, Human embryo liver cell (non-cancer); 3 days
Experimental: as §1

Malme 3M = conditions: Homo sapiens, 72 h, Malignant melanoma, 3 days
Experimental: as §1

OVCAR3 = conditions: Homo sapiens, OVCAR-3, 72 h; OVCAR3, Ovary adenocarcinoma; 3 days
Experimental: as §1

MDA-MB-453 = conditions: Homo sapiens, 72 h; MDA-MB-453, Breast carcinoma; 3 days
Experimental: as §1

SK-BR-3 = conditions: Homo sapiens, 72 h; SK-BR-3, Breast adenocarcinoma; 3 days
Experimental: as §1

NC65 = conditions: 72 h; NC65, Pancreatic cancer; 3 days
Experimental: as §1

A-204 = conditions: Homo sapiens, A204, 72 h; A-204, Rhabdomyosarcoma; 3 days
Experimental: as §1

BNL CL.2 = conditions: 72 h; BNL CL.2, Mouse normal liver cell (non-cancer); 3 days
Experimental: as §1

Hs0578T = conditions: 72 h, Breast ductal carcinoma, 3 days
Experimental: as §1

BALB/c CL.7 = conditions: 72 h; BALB/c CL.7, Mouse normal fibroblast (non-cancer); 3 days
Experimental: as §1

BHK-21 = conditions: Mesocricetus auratus, 72 h; BHK-21, Hamster kidney cell (non-cancer); 3 days
Experimental: as §1

KB = conditions: Homo sapiens, 72 h, Oral epidemiod carcinoma, 3 days
Experimental: as §1

NRK-49F = conditions: 72 h, Rat normal kidney fibroblast (non-cancer), 3 days
Experimental: as §1

MDA-MB-468 = conditions: Homo sapiens, 72 h; MDA-MB-468, Breast adenocarcinoma; 3 days
Experimental: as §1

T47D = conditions: Homo sapiens, 72 h, Breast ductal carchoma, 3 days
Experimental: as §1

PC-3 = conditions: Homo sapiens, 72 h; PC-3, Prostate adenocarcinoma; 3 days
Experimental: as §1

KM12-HX = conditions: Homo sapiens, 72 h, Colon cancer, 3 days
Experimental: as §1

A546 = conditions: 72 h; A546, Lung carcinoma; 3 days
Experimental: as §1

MDA-MB-134VI = conditions: Homo sapiens, 72 h, Breast ductal carcinoma, 3 days
Experimental: as §1

HT1376 = conditions: Homo sapiens, HT-1376, 72 h; HT1376, Bladder carcinoma; 3 days
Experimental: as §1

BALB/c3T3 cloneA31 = conditions: 72 h; BALB/c3T3 cloneA31, Mouse embryonic cell (non-cancer); 3 days
Experimental: as §1

HeLaS3 = conditions: Homo sapiens, HeLa S3, 72 h; HeLaS3, Cervix epitheloid carcinoma; 3 days
Experimental: as §1

CALU6 = conditions: Homo sapiens, Calu-6, 72 h; CALU6, Lung anaplastic carcinoma; 3 days
Experimental: as §1

HT144 = conditions: Homo sapiens, HT-144, 72 h; HT144, Malignant melanoma; 3 days
Experimental: as §1

A431 = conditions: Homo sapiens, A-431, 72 h; A431, Epidemoid carcinoma; 3 days
Experimental: as §1

Swiss/3T3 = conditions: 72 h; Swiss/3T3, Mouse embryonic cell (non-cancer); 3 days
Experimental: as §1

PLC/PRF/5 = conditions: Homo sapiens, 72 h; PLC/PRF/5, Hepatoma; 3 days
Experimental: as §1

SAOS2 = conditions: Homo sapiens, SAOS-2, 72 h; SAOS2, Osteogenic sarcoma; 3 days
Experimental: as §1

A673 = conditions: Homo sapiens, 72 h; A673, Rhabdomyosarcoma; 3 days
Experimental: as §1

Ls174T = conditions: Homo sapiens, 72 h, Colon adenocarcinoma, 3 days
Experimental: as §1

COLO320DM = conditions: Homo sapiens, COLO 320DM, 72 h, Colon adenocarcinoma, 3 days
Experimental: as §1

Clone9 = conditions: 72 h; Clone9, Rat normal liver cell (non-cancer); 3 days
Experimental: as §1

CHO-K1 = conditions: Cricetulus griseus, 72 h; CHO-K1, Chinese hamster ovary cell (non-cancer); 3 days
Experimental: as §1

NIH/3T3 = conditions: NIH3T3, 72 h; NIH/3T3, Mouse embryonic cell (non-cancer); 3 days
Experimental: as §1

G-361 = conditions: Homo sapiens, 72 h; G-361, Malignant melanoma; 3 days
Experimental: as §1

DU145 = conditions: Homo sapiens, DU-145, 72 h; DU145, Prostate carcinoma; 3 days
Experimental: as §1

WM-266-4 = conditions: Homo sapiens, 72 h; WM-266-4, Melanoma; 3 days
Experimental: as §1

RT4 = conditions: Homo sapiens, RT-4, 72 h; RT4, Bladder papillima; 3 days
Experimental: as §1

NCTCclone1469 = conditions: 72 h; NCTCclone1469, Mouse normal liver cell (non-cancer); 3 days
Experimental: as §1

IC50 (SK-HEP-1): 0.302 µg/mL (≈ 0.556 µM) | IC50 (SW480): 0.097 µg/mL (≈ 0.178 µM) | IC50 (AsPC-1): 0.8 µg/mL (≈ 1.47 µM) | IC50 (LoVo): 0.065 µg/mL (≈ 0.12 µM) | IC50 (HCC-T): 0.076 µg/mL (≈ 0.14 µM) | IC50 (SK-OV-3): 0.252 µg/mL (≈ 0.464 µM) | IC50 (OVCAR3): > 1 µg/mL | IC50 (MDA-MB-453): 0.143 µg/mL (≈ 0.263 µM) | IC50 (SK-BR-3): 0.078 µg/mL (≈ 0.144 µM) | IC50 (KB): 0.025 µg/mL (≈ 0.046 µM) | IC50 (MDA-MB-468): 0.057 µg/mL (≈ 0.105 µM) | IC50 (T47D): 0.114 µg/mL (≈ 0.21 µM) | IC50 (PC-3): > 1 µg/mL | IC50 (MDA-MB-134VI): 0.081 µg/mL (≈ 0.149 µM) | IC50 (HT1376): 0.217 µg/mL (≈ 0.399 µM) | IC50 (HeLaS3): 0.049 µg/mL (≈ 0.0902 µM) | IC50 (CALU6): 0.282 µg/mL (≈ 0.519 µM) | IC50 (HT144): 0.219 µg/mL (≈ 0.403 µM) | IC50 (A431): 0.052 µg/mL (≈ 0.0957 µM) | IC50 (COLO320DM): 0.838 µg/mL (≈ 1.54 µM) | IC50 (DU145): 0.236 µg/mL (≈ 0.434 µM)
SMILES: COc1cccc2c1C(=O)c1c(O)c3c(c(O)c1C2=O)C[C@@](O)(C(=O)CO)C[C@@H]3O[C@H]1C[C@H](N)[C@H](O)[C@H](C)O1 [Adriamycin]
IC50 (RD): 0.208 µg/mL (≈ 0.383 µM) | IC50 (TSU-PR-1): 0.572 µg/mL (≈ 1.05 µM) | IC50 (McA-8994): > 1 µg/mL | IC50 (WRL68): 0.283 µg/mL (≈ 0.521 µM) | IC50 (Malme 3M): 0.114 µg/mL (≈ 0.21 µM) | IC50 (NC65): 0.073 µg/mL (≈ 0.134 µM) | IC50 (A-204): 0.076 µg/mL (≈ 0.14 µM) | IC50 (BNL CL.2): 0.398 µg/mL (≈ 0.732 µM) | IC50 (Hs0578T): 0.76 µg/mL (≈ 1.4 µM) | IC50 (BALB/c CL.7): 0.117 µg/mL (≈ 0.215 µM) | IC50 (BHK-21): 0.047 µg/mL (≈ 0.0865 µM) | IC50 (NRK-49F): > 1 µg/mL | IC50 (KM12-HX): 0.13 µg/mL (≈ 0.239 µM) | IC50 (A546): 0.831 µg/mL (≈ 1.53 µM) | IC50 (BALB/c3T3 cloneA31): 0.427 µg/mL (≈ 0.786 µM) | IC50 (Swiss/3T3): 0.903 µg/mL (≈ 1.66 µM) | IC50 (PLC/PRF/5): 0.042 µg/mL (≈ 0.0773 µM) | IC50 (SAOS2): 0.075 µg/mL (≈ 0.138 µM) | IC50 (A673): 0.104 µg/mL (≈ 0.191 µM) | IC50 (Ls174T): 0.096 µg/mL (≈ 0.177 µM) | IC50 (Clone9): 0.228 µg/mL (≈ 0.419 µM) | IC50 (CHO-K1): 0.02 µg/mL (≈ 0.0368 µM) | IC50 (NIH/3T3): 0.102 µg/mL (≈ 0.188 µM) | IC50 (G-361): 0.146 µg/mL (≈ 0.269 µM) | IC50 (WM-266-4): 0.206 µg/mL (≈ 0.379 µM) | IC50 (RT4): 0.058 µg/mL (≈ 0.107 µM) | IC50 (NCTCclone1469): 0.101 µg/mL (≈ 0.186 µM)
